Experimental data published in US10221177B2 (HYDRA BIOSCIENCES, INC., priority 2014, dated 2019).

Biological target: human TRPA1 (Homo sapiens (Human), UniProt O75762)
Assay: In vitro inhibition of human TRPA1, whole cell patch configuration
Format: cell-based
Details: current activation 10 μM AITC, tested concentrations 320 pM to 3.2 μM, read-out: hTRPA1 IC50
How it was run: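 Whole-cell patch clamp, bath 150 mM NaCl, 10 mM HEPES, 1 mM EGTA, 3 mM MgCl2, pH 7.4 (sometimes 2 mM CaCl2, 1 mM MgCl2). Currents recorded continuously at −60 mV or by 400 ms ramps from −40 mV holding every 4 s; inward/outward currents taken at −80/80 mV, with controlled-temperature focal perfusion.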

Sequence of human TRPA1 (O75762 whole entry): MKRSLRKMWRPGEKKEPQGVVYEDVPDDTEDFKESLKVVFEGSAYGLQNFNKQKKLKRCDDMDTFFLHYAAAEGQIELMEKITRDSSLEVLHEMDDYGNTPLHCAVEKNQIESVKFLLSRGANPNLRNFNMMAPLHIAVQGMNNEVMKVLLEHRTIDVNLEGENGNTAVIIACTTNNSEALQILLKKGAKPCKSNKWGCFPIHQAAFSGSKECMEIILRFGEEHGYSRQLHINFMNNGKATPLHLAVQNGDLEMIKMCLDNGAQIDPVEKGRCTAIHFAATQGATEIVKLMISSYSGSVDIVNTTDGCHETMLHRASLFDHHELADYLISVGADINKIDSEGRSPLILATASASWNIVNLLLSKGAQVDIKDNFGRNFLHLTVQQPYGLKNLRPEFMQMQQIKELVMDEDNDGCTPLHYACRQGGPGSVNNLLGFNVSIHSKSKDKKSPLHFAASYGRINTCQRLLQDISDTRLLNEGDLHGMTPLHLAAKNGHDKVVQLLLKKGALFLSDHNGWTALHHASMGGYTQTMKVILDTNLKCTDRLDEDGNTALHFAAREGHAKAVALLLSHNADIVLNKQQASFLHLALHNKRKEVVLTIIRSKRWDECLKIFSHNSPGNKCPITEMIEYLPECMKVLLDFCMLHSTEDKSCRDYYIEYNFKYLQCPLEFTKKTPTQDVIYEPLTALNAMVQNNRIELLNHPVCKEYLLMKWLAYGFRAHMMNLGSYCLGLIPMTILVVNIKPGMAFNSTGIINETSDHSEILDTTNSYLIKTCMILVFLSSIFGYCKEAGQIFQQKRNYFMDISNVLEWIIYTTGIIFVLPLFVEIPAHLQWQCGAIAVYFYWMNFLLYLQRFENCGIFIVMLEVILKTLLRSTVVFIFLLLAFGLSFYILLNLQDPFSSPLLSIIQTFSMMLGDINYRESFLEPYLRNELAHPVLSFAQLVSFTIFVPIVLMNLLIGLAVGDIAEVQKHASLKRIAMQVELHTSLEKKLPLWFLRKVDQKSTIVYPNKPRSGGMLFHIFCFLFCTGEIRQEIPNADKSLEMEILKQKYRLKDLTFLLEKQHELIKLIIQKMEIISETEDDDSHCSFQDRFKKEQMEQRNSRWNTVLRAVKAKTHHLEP

| IC50 [nM] | Compound |
| --- | --- |
| 4 | Cc1cc(Cn2c(=O)c3c(ncn3[C@@H](C)C(=O)Nc3cncc(-c4cnc(C)c(C(F)(F)F)c4)n3)n(C)c2=O)no1 [Compound 128, (S)-2-(3-methyl-1-((5-methylisoxazol-3-yl)methyl)-2,6-dioxo-2,3-dihydro-1H-purin-7(6H)-yl)-N-(6-(6-methyl-5-(trifluoromethyl)pyridin-3-yl)pyrazin-2-yl)propanamide] |
| 8 | Cc1cc(Cn2c(=O)c3c(ncn3[C@@H](C)C(=O)Nc3cncc(-c4cnc(C(F)(F)F)c(C)c4)n3)n(C)c2=O)no1 [Compound 130, (S)-2-(3-methyl-1-((5-methylisoxazol-3-yl)methyl)-2,6-dioxo-2,3-dihydro-1H-purin-7(6H)-yl)-N-(6-(5-methyl-6-(trifluoromethyl)pyridin-3-yl)pyrazin-2-yl)propanamide] |
| 9 | Cc1noc(Cn2c(=O)c3c(ncn3[C@@H](C)C(=O)Nc3cncc(-c4cnc(C)c(C(F)(F)F)c4)n3)n(C)c2=O)n1 [Compound 132, (S)-2-(3-methyl-1-((3-methyl-1,2,4-oxadiazol-5-yl)methyl)-2,6-dioxo-2,3-dihydro-1H-purin-7(6H)-yl)-N-(6-(6-methyl-5-(trifluoromethyl)pyridin-3-yl)pyrazin-2-yl)propanamide] |
| 9 | Cc1noc(Cn2c(=O)c3c(ncn3[C@@H](C)C(=O)Nc3cncc(-c4cnc(C(F)(F)F)c(C)c4)n3)n(C)c2=O)n1 [Compound 133, (S)-2-(3-methyl-1-((3-methyl-1,2,4-oxadiazol-5-yl)methyl)-2,6-dioxo-2,3-dihydro-1H-purin-7(6H)-yl)-N-(6-(5-methyl-6-(trifluoromethyl)pyridin-3-yl)pyrazin-2-yl)propanamide] |
| 13 | Cc1cc(-c2cncc(NC(=O)[C@H](C)n3cnc4c3c(=O)n(Cc3ccon3)c(=O)n4C)n2)cnc1C(F)(F)F [Compound 137, (S)-2-(1-(isoxazol-3-ylmethyl)-3-methyl-2,6-dioxo-2,3-dihydro-1H-purin-7(6H)-yl)-N-(6-(5-methyl-6-(trifluoromethyl)pyridin-3-yl)pyrazin-2-yl)propanamide] |
| 11 | Cc1cc(Cn2c(=O)c3c(ncn3[C@@H](C)C(=O)Nc3cncc(-c4cnc(C)c(Cl)c4)n3)n(C)c2=O)no1 [Compound 139, (S)—N-(6-(5-chloro-6-methylpyridin-3-yl)pyrazin-2-yl)-2-(3-methyl-1-((5-methylisoxazol-3-yl)methyl)-2,6-dioxo-2,3-dihydro-1H-purin-7(6H)-yl)propanamide] |
| 32 | CC(=O)Cn1c(=O)c2c(ncn2[C@@H](C)C(=O)Nc2cncc(-c3cnc(C)c(Cl)c3)n2)n(C)c1=O [Compound 140, (S)—N-(6-(5-chloro-6-methylpyridin-3-yl)pyrazin-2-yl)-2-(3-methyl-2,6-dioxo-1(2-oxopropyl)-2,3-dihydro-1H-purin-7(6H)-yl)propanamide] |
| 7 | CC(=O)Cn1c(=O)c2c(ncn2[C@@H](C)C(=O)Nc2cccc(-c3cnc(N4CC5CC5C4)nc3)n2)n(C)c1=O (stereo partly drawn) [Compound 142, (2S)—N-(6-(2-(3-azabicyclo[3.1.0]hexan-3-yl)pyrimidin-5-yl)pyridin-2-yl)-2-(3-methyl-2,6-dioxo-1-(2-oxopropyl)-2,3-dihydro-1H-purin-7(6H)-yl)propanamide] |

The next lines start with the compound.

| Compound | IC50 [nM] |
| --- | --- |
| CCOc1ncc(-c2cccc(NC(=O)[C@H](C)n3cnc4c3c(=O)n(CC(=O)CC)c(=O)n4C)n2)cc1C(F)(F)F [Compound 125, (S)—N-(6′-ethoxy-5′-(trifluoromethyl)-[2,3′-bipyridin]-6-yl)-2-(3-methyl-2,6-dioxo-1-(2-oxobutyl)-2,3-dihydro-1H-purin-7(6H)-yl)propanamide] | 1 |
| Cc1cc(Cn2c(=O)c3c(ncn3[C@@H](C)C(=O)Nc3cccc(-c4cnc(C)c(C(F)(F)F)c4)n3)n(C)c2=O)no1 [Compound 126, (S)-2-(3-methyl-1-((5-methylisoxazol-3-yl)methyl)-2,6-dioxo-2,3-dihydro-1H-purin-7(6H)-yl)-N-(6′-methyl-5′-(trifluoromethyl)-[2,3′-bipyridin]-6-yl)propanamide] | 1 |
| Cc1cc(Cn2c(=O)c3c(ncn3[C@@H](C)C(=O)Nc3cccc(-c4cnc(C)c(C)c4)n3)n(C)c2=O)no1 [Compound 127, (S)—N-(5′,6′-dimethyl-[2,3′-bipyridin]-6-yl)-2-(3-methyl-1-((5-methylisoxazol-3-yl)methyl)-2,6-dioxo-2,3-dihydro-1H-purin-7(6H)-yl)propanamide] | 25 |
| Cc1cc(Cn2c(=O)c3c(ncn3[C@@H](C)C(=O)Nc3cccc(-c4cnc(C(F)(F)F)c(C)c4)n3)n(C)c2=O)no1 [Compound 129, (S)-2-(3-methyl-1-((5-methylisoxazol-3-yl)methyl)-2,6-dioxo-2,3-dihydro-1H-purin-7(6H)-yl)-N-(5′-methyl-6′-(trifluoromethyl)-[2,3′-bipyridin]-6-yl)propanamide] | 2 |
| Cc1noc(Cn2c(=O)c3c(ncn3[C@@H](C)C(=O)Nc3cccc(-c4cnc(C(F)(F)F)c(C)c4)n3)n(C)c2=O)n1 [Compound 131, (S)-2-(3-methyl-1-((3-methyl-1,2,4-oxadiazol-5-yl)methyl)-2,6-dioxo-2,3-dihydro-1H-purin-7(6H)-yl)-N-(5′-methyl-6′-(trifluoromethyl)-[2,3′-bipyridin]-6-yl)propanamide] | 6 |
| Cc1ncc(-c2cccc(NC(=O)[C@H](C)n3cnc4c3c(=O)n(Cc3ccon3)c(=O)n4C)n2)cc1C(F)(F)F [Compound 136, (S)-2-(1-(isoxazol-3-ylmethyl)-3-methyl-2,6-dioxo-2,3-dihydro-1H-purin-7(6H)-yl)-N-(6′-methyl-5′-(trifluoromethyl)-[2,3′-bipyridin]-6-yl)propanamide] | 3 |
| CC(C(=O)Nc1ccnc(-c2cnc(C(F)(F)F)nc2)n1)n1cnc2c1c(=O)n(Cc1ccccn1)c(=O)n2C (stereo not drawn) [Compound 141, 2-(3-methyl-2,6-dioxo-1-(pyridin-2-ylmethyl)-2,3-dihydro-1H-purin-7(6H)-yl)-N-(2′(trifluoromethyl)-2,5′-bipyrimidin-4-yl)propanamide] | 80 |
| CC(=O)Cn1c(=O)c2c(ncn2[C@@H](C)C(=O)Nc2ccnc(-c3cnc(N4CC5CC5C4)nc3)n2)n(C)c1=O (stereo partly drawn) [Compound 143, (2S)—N-(2′-(3-azabicyclo[3.1.0]hexan-3-yl)-2,5′-bipyrimidin-4-yl)-2-(3-methyl-2,6-dioxo-1-(2-oxopropyl)-2,3-dihydro-1H-purin-7(6H)-yl)propanamide] | 20 |
| CC#CCn1c(=O)c2c(ncn2[C@@H](C)C(=O)Nc2csc(-c3cnc(N4CC5CC5C4)nc3)n2)n(C)c1=O (stereo partly drawn) [Compound 145, (2S)—N-(2-(2-(3-azabicyclo[3.1.0]hexan-3-yl)pyrimidin-5-yl)thiazol-4-yl)-2-(1-(but-2-ynyl)-3-methyl-2,6-dioxo-2,3-dihydro-1H-purin-7(6H)-yl)propanamide] | 2 |
| COCC(=O)Cn1c(=O)c2c(ncn2[C@@H](C)C(=O)Nc2cccc(-c3cnc(N4CC5C(C4)C5(F)F)nc3)n2)n(C)c1=O (stereo partly drawn) [Compound 146, (2S)—N-(6-(2-(6,6-difluoro-3-azabicyclo[3.1.0]hexan-3-yl)pyrimidin-5-yl)pyridin-2-yl)-2-(1-(3-methoxy-2-oxopropyl)-3-methyl-2,6-dioxo-2,3-dihydro-1H-purin-7(6H)-yl)propanamide] | 3 |
